{
  "source": "patent US20250120643A1",
  "about": "“INGESTIBLE AND/OR IMPLANTABLE ARTICLES FOR MONITORING ELECTRICAL SIGNALS AND RELATED METHODS” (Massachusetts Institute of Technology, priority 2023, published 2025)",
  "key": {"gastric slow wave": {"test_system": "gastric slow wave", "experiment": "Azithromycin motility experiment: MiGUT recording in the stomach of anesthetized swine before and after intravenous prokinetic delivery", "format": "in vivo, Yorkshire swine", "conditions": "anesthetized pig", "experimental": "Motivated by the capability of the MiGUT system to detect gastric slow wave activity, an experiment was designed to test if the changes or modulations in gastric motility could also be detected. The MiGUT system was again placed in the porcine stomach of an anesthetized animal and following baseline recording, azithromycin, a known prokinetic which activates motilin receptors, was intravenously delivered (1 mg/kg total dose) via ear catheter over the course of 5 minutes (FIG. 10A(i)). […] Replicates of this experiment produced similar increases in the slow wave power (FIG. 12).\nAll animal experiments were approved by and performed in accordance with the Committee on Animal Care at MIT. Yorkshire swine were obtained from Cummings School of Veterinary Medicine at Tufts University (Grafton, MA, USA) for in-vivo experiments. Pigs weighing approximately 60-100 kg were placed on a liquid diet for 24 hours the day before the study and were fasted overnight prior to the study. For device placement, animals were anesthetized using an intramuscular injection of midazolam 0.25 mg/kg and dexmedetomidine 0.03 mg/kg. Following sedation, animals were placed on thermal support and ophthalmic ointment was applied to both eyes. The animal was intubated and placed on isoflurane (2%) in oxygen and connected to a vital signs monitoring system. The MiGUT device was delivered orally into the stomach, using an orogastric tube and imaged using PENTAX EC-3870TLK (160 cm) to visualize the stomach with the animal in the left lateral position.\nFor azithromycin experiments, following ca. 1 hr of baseline recording in the anesthetized animal, 1 mg/kg animal weight of 20 mg/ml Azithromycin (Sigma-Aldrich) solution (in PBS pH adjusted with HCL, Thermofischer) was delivered via ear catheter over the course of 5 minutes. Measurements were conducted for a minimum of 45 minutes following drug delivery. Power was calculated by summing the square of the voltage measurements in a 25 minute time window. Difference in power was calculated as (Pinitial-Pfinal)/Pinitial.\nFinally, to show this system can track changes in motility, Azithromycin was administered halfway during six studies. […] It was intravenously delivered at 1 mg/kg over 5 minutes through an ear catheter. […] This indicates throughout this duration of increased gastric activity (with suspected contractions), the electrodes continued to make good contact. Thus, MiGUT is shown to be able to track changes in gastric motility and maintain a reliable interface with the mucosa."}, "[1]": {"test_system": "gastric slow wave and all other recorded signals", "experiment": "Animal euthanasia study: MiGUT recording during administration of a barbiturate cocktail", "format": "in vivo, Yorkshire swine", "conditions": "pig, euthanization during recording; 1 ml/10 lbs", "source_text": "In an anesthetized Yorkshire pig, the device was delivered into the stomach and the electrode is shown to unroll and conform to the gastric mucosa along the greater curvature of the stomach (FIG. 7A). The reference electrode was localized near the stomach corpus (Schematic in FIG. 8). One and a half hours of recorded data in this experiment (at 62.5 samples/s) was used to generate a heat map of electrical activity vs time and channel (FIG. 7B(i)). Initial electrical activity seen in all channels following device placement (t=0 to 500 seconds) is most likely due to mechanical stimulation as a consequence of endoscopic visualization following device deployment. Channels near the pylorus (FIG. 7B(ii), channels 0-2) measured large amplitude, prolonged waveforms with periods of ca. 500 seconds with approximately 6 total cycles. […] These signals were also observed in separate experiments using the MiGUT system in different animals (N=5, Table 1).\nFor non-survival procedures, the animal was sedated with intramuscular injection of Telazol (tiletamine/zolazepam) 5 mg/kg and xylazine 2 mg/kg and euthanized using Fatal Plus (sodium pentobarbital), 1 ml/10 lbs. Heart rate and respiration rate are assessed via vitals monitor to ensure that the pig has been euthanized. […]"}},
  "note": "Entries after “also recorded” stand apart in the source; their conditions may differ.",
  "data": [
    {"smiles": "CC[C@H]1OC(=O)[C@H](C)[C@@H](O[C@H]2C[C@@](C)(OC)[C@@H](O)[C@H](C)O2)[C@H](C)[C@@H](O[C@@H]2O[C@H](C)C[C@H](N(C)C)[C@H]2O)[C@](C)(O)C[C@@H](C)CN(C)[C@H](C)[C@@H](O)[C@]1(C)O", "note": "[azithromycin]", "values": [
      {"measurement": "changes in the respiration and heart rate frequency bands", "setting": "gastric slow wave; 1 mg/kg i.v. over 5 minutes through ear catheter, six studies", "value": "no significant changes"},
      {"measurement": "amplitude of the slow wave", "setting": "gastric slow wave; 1 mg/kg i.v. over 5 minutes through ear catheter, six studies, seen in five of the recording channels", "value": "significant increase"},
      {"measurement": "power in the EKG or respiratory frequency windows", "setting": "gastric slow wave; 1 mg/kg i.v. over 5 minutes, 25 minutes after vs 25 minutes prior to dosing", "value": "no significant change in power"},
      {"measurement": "power in the slow wave frequency range", "setting": "gastric slow wave; 1 mg/kg i.v. via ear catheter over 5 minutes, 25 minutes after vs 25 minutes prior to dosing, seen in 5 of the 8 recording channels", "value": "noticeable increase in power"}
    ]},
    {"smiles": "CCCC(C)C1(CC)C(=O)N=C([O-])NC1=O.[Na+]", "note": "(centres unmarked) [barbiturate cocktail, sodium pentobarbital]", "values": [
      {"measurement": "effect on waveforms recorded by MiGUT (slow wave and all other signals)", "setting": "[1]", "value": "terminated; also recorded: cessation of all waveforms"}
    ]}
  ]
}
